PubChem BioAssay (NCI)
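1) Cells in 96-well plates. 2) Compound, 48 h, 5 concentrations. 3) Linear interpolation between surrounding doses. 4) Unreached endpoint = highest concentration. The concentration for full growth arrest is given as TGI.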

Legend:
Test in all cases: NCI tumour cell line growth inhibition, 48 h
786-0 renal = tested on: 786-0 renal
A498 renal = tested on: A498 renal
A549 NSCLC = tested on: A549 NSCLC
ACHN renal = tested on: ACHN renal
CAKI-1 renal = tested on: CAKI-1 renal
CCRF-CEM leukemia = tested on: CCRF-CEM leukemia
COLO 205 colon = tested on: COLO 205 colon
DLD-1 colon = tested on: DLD-1 colon
DMS 114 small cell lung = tested on: DMS 114 small cell lung
DMS 273 small cell lung = tested on: DMS 273 small cell lung
EKVX NSCLC = tested on: EKVX NSCLC
HCC-2998 colon = tested on: HCC-2998 colon
HCT-116 colon = tested on: HCT-116 colon
HCT-15 colon = tested on: HCT-15 colon
HL-60(TB) leukemia = tested on: HL-60(TB) leukemia
HOP-18 NSCLC = tested on: HOP-18 NSCLC
HOP-62 NSCLC = tested on: HOP-62 NSCLC
HOP-92 NSCLC = tested on: HOP-92 NSCLC
HT29 colon = tested on: HT29 colon
IGROV1 ovarian = tested on: IGROV1 ovarian
K-562 leukemia = tested on: K-562 leukemia
KM12 colon = tested on: KM12 colon
KM20L2 colon = tested on: KM20L2 colon
LXFL 529 NSCLC = tested on: LXFL 529 NSCLC
M14 melanoma = tested on: M14 melanoma
M19-MEL melanoma = tested on: M19-MEL melanoma
MALME-3M melanoma = tested on: MALME-3M melanoma
MOLT-4 leukemia = tested on: MOLT-4 leukemia
NCI-H23 lung = tested on: NCI-H23 lung
NCI-H460 lung = tested on: NCI-H460 lung
OVCAR-3 ovarian = tested on: OVCAR-3 ovarian
OVCAR-4 ovarian = tested on: OVCAR-4 ovarian
OVCAR-5 ovarian = tested on: OVCAR-5 ovarian
OVCAR-8 ovarian = tested on: OVCAR-8 ovarian
RPMI-8226 leukemia = tested on: RPMI-8226 leukemia
RXF 393 renal = tested on: RXF 393 renal
RXF-631 renal = tested on: RXF-631 renal
SF-268 CNS = tested on: SF-268 CNS
SF-295 CNS = tested on: SF-295 CNS
SF-539 CNS = tested on: SF-539 CNS
SK-MEL-2 melanoma = tested on: SK-MEL-2 melanoma
SK-MEL-28 melanoma = tested on: SK-MEL-28 melanoma
SK-MEL-5 melanoma = tested on: SK-MEL-5 melanoma
SK-OV-3 ovarian = tested on: SK-OV-3 ovarian
SN12C renal = tested on: SN12C renal
SNB-19 CNS = tested on: SNB-19 CNS
SNB-75 CNS = tested on: SNB-75 CNS
SNB-78 CNS = tested on: SNB-78 CNS
SW-620 colon = tested on: SW-620 colon
TK-10 renal = tested on: TK-10 renal
U251 CNS = tested on: U251 CNS
UACC-257 melanoma = tested on: UACC-257 melanoma
UACC-62 melanoma = tested on: UACC-62 melanoma
XF 498 CNS = tested on: XF 498 CNS
LOX IMVI melanoma = tested on: LOX IMVI melanoma
NCI-H226 lung = tested on: NCI-H226 lung
NCI-H522 lung = tested on: NCI-H522 lung
UO-31 renal = tested on: UO-31 renal

Measured: TGI

O=c1ccnc2ccc3n[nH][nH]c3c12
not listed: LOX IMVI melanoma | NCI-H226 lung | NCI-H522 lung | UO-31 renal
> 100 µM: all other assays above

C=CCN(N=O)C(=O)NCCCCC(NC(C)=O)C(=O)NCc1ccccc1 (stereo not drawn)
not listed: DLD-1 colon | HCC-2998 colon | HCT-116 colon | SNB-78 CNS
> 100 µM: all other assays above
